Results published in ChEMBL document CHEMBL1147859, “Thienopyrimidinone bis-aminopyrrolidine ureas as potent melanin-concentrating hormone receptor-1 (MCH-R1) antagonists” (Bioorg Med Chem Lett, 2007).

What was measured:
[1] = target: T1, Melanin-concentrating hormone receptor 1 (Homo sapiens, UniProt Q99705); experiment: Binding affinity to human MCHR1
[2] = Intrinsic clearance in human liver microsome; assay type: ADME; settings: liver microsomes
[3] = target: T1, Melanin-concentrating hormone receptor 1; experiment: Antagonist activity at human MCHR1 by [35S]GTP-gamma-S binding assay; assay type: functional
[4] = target: Cytochrome P450 2D6 (Homo sapiens, UniProt P10635); experiment: Inhibition of CYP2D6; assay type: ADME; settings: for Activity: human
Chain of Cytochrome P450 2D6 (P10635 whole entry): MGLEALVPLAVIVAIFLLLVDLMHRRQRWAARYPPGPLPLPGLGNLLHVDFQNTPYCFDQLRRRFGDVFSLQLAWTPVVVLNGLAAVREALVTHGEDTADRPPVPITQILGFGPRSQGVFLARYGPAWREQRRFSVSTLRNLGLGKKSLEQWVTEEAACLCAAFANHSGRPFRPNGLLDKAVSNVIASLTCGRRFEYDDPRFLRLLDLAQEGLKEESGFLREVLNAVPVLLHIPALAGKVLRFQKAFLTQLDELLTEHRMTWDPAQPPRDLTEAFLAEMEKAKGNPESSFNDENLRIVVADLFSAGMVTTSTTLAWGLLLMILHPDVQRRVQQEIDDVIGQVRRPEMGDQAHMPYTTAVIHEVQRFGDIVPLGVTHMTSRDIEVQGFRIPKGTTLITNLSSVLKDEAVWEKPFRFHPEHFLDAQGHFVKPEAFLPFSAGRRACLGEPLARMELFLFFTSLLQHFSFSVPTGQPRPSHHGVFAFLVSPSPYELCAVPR

[5] = target: CYP2D6 (Homo sapiens, UniProt P10635); experiment: Inhibition of CYP2D6 at 120 uM; assay type: ADME
Chain of CYP2D6 (P10635 whole entry): as above

T1 sequence (Q99705 whole entry): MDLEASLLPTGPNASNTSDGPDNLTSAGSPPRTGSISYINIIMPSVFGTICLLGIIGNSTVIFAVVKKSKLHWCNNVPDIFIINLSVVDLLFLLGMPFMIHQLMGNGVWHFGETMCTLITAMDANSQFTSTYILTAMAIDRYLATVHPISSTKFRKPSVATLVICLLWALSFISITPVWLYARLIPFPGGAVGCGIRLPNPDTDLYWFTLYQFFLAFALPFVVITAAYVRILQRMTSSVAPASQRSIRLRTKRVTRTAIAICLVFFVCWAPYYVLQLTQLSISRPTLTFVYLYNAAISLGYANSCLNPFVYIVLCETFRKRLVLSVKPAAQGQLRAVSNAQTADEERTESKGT

| Ki [1] [nM] | IC50 [3] [nM] | Structure (SMILES) | other results |
| --- | --- | --- | --- |
| 3 | 23 | CN(C(=O)N1CC[C@H](n2cnc3cc(-c4ccc(Cl)cc4)sc3c2=O)C1)[C@H]1CCN(C2CCOCC2)C1 | CLint scaled [2]: 24 mL/min/kg; IC50 [4]: 22500 nM |
| 15 | – | Cc1ccc(-c2cc3ncn([C@H]4CCN(C(=O)N(C)[C@H]5CCN(C)C5)C4)c(=O)c3s2)cc1 | – |
| 4 | 13 | CN(C(=O)N1CC[C@H](n2cnc3cc(-c4ccc(Cl)cc4)sc3c2=O)C1)[C@H]1CCN(C2CCCC2)C1 | – |
| 28 | – | COc1ccc(-c2cc3ncn([C@H]4CCN(C(=O)N(C)[C@H]5CCN(C6CCOCC6)C5)C4)c(=O)c3s2)c(C)c1 | – |
| 18 | – | CN(C(=O)N1CC[C@H](n2cnc3cc(-c4ccc(OC(F)(F)F)cc4)sc3c2=O)C1)[C@H]1CCN(C2CCOCC2)C1 | – |
| 26 | – | CCOc1ccc(-c2cc3ncn([C@H]4CCN(C(=O)N(C)[C@H]5CCN(C)C5)C4)c(=O)c3s2)c(Cl)c1 | – |
| 21 | – | CN(C(=O)N1CCC(n2cnc3cc(-c4ccc(Cl)cc4)sc3c2=O)C1)[C@@H]1CCN(C2CCOCC2)C1 (single isomer, unassigned) | – |
| 6 | 31 | CN(C(=O)N1CC[C@H](n2cnc3cc(-c4ccc(Cl)cc4)sc3c2=O)C1)[C@H]1CCN(CCCc2ccccc2)C1 | CLint scaled [2]: 41 mL/min/kg; IC50 [4]: 8600 nM |
| 46 | – | COc1ccc(-c2cc3ncn([C@H]4CCN(C(=O)N(C)[C@H]5CCN(C)C5)C4)c(=O)c3s2)c(C)c1 | – |
| 3 | 10 | CN(C(=O)N1CC[C@H](n2cnc3cc(-c4ccc(Cl)cc4)sc3c2=O)C1)[C@H]1CCN(CC2CC2)C1 | – |
| 49 | – | Cc1ccc(-c2cc3ncn([C@H]4CCN(C(=O)N(C)[C@H]5CCN(C)C5)C4)c(=O)c3s2)c(C)c1 | – |
| 5 | – | CCc1ccc(-c2cc3ncn([C@H]4CCN(C(=O)N(C)[C@H]5CCN(C)C5)C4)c(=O)c3s2)cc1 | inhibition at 120 µM [5]: 42%; CLint scaled [2]: 200 mL/min/kg |
| 14 | – | CCOc1ccc(-c2cc3ncn([C@H]4CCN(C(=O)N(C)[C@H]5CCN(C6CCOCC6)C5)C4)c(=O)c3s2)c(Cl)c1 | – |
| 19 | – | CN(C(=O)N1CC[C@H](n2cnc3cc(-c4ccc(C(F)(F)F)cc4)sc3c2=O)C1)[C@H]1CCN(C2CCOCC2)C1 | – |
| 45 | – | CN(C(=O)N1CC[C@H](n2cnc3cc(-c4ccc5c(c4)OCCO5)sc3c2=O)C1)[C@H]1CCN(C2CCOCC2)C1 | – |
| 143 | – | CN1CC[C@H](N(C)C(=O)N2CC[C@H](n3cnc4cc(-c5ccc6c(c5)OCCO6)sc4c3=O)C2)C1 | – |
| 69 | – | CN(C(=O)N1CC[C@@H](n2cnc3cc(-c4ccc(Cl)cc4)sc3c2=O)C1)[C@@H]1CCN(C2CCOCC2)C1 | – |
| 17 | 29 | CN(C(=O)N1CC[C@H](n2cnc3cc(-c4ccc(Cl)cc4)sc3c2=O)C1)[C@H]1CCNC1 | – |

| Ki [1] [nM] | IC50 [3] [nM] | Structure (SMILES) | other results |
| --- | --- | --- | --- |
| 70 | – | Cc1ccc(-c2cc3ncn([C@H]4CCN(C(=O)N(C)[C@H]5CCN(C6CCOCC6)C5)C4)c(=O)c3s2)c(C)c1 | – |
| 7 | 11 | CN(C(=O)N1CC[C@H](n2cnc3cc(-c4ccc(Cl)cc4)sc3c2=O)C1)[C@H]1CCN(CC2CCOCC2)C1 | – |
| 1 | 9 | CN(C(=O)N1CC[C@H](n2cnc3cc(-c4ccc(Cl)cc4)sc3c2=O)C1)[C@H]1CCN(C2CCC2)C1 | – |
| 21 | – | COc1ccc(-c2cc3ncn([C@H]4CCN(C(=O)N(C)[C@H]5CCN(C)C5)C4)c(=O)c3s2)cc1 | – |
| 2 | 10 | CN(C(=O)N1CC[C@H](n2cnc3cc(-c4ccc(Cl)cc4)sc3c2=O)C1)[C@H]1CCN(C2CCC(C)(C)CC2)C1 | IC50 [4]: 3400 nM |
| 14 | – | Cc1ccc(-c2cc3ncn([C@H]4CCN(C(=O)N(C)[C@H]5CCN(C6CCOCC6)C5)C4)c(=O)c3s2)cc1 | – |
| 50 | 53 | CN(C(=O)N1CC[C@H](n2cnc3cc(-c4ccc(Cl)cc4)sc3c2=O)C1)[C@H]1CCN(CC2CCCCC2)C1 | – |
| 10 | 20 | CN1CC[C@H](N(C)C(=O)N2CC[C@H](n3cnc4cc(-c5ccc(Cl)cc5)sc4c3=O)C2)C1 | CLint scaled [2]: 16 mL/min/kg; Activity [4]: 99 µM |
| 8 | – | CCc1ccc(-c2cc3ncn([C@H]4CCN(C(=O)N(C)[C@H]5CCN(C6CCOCC6)C5)C4)c(=O)c3s2)cc1 | CLint scaled [2]: 85 mL/min/kg; Activity [4]: 57 µM |
| 4 | 10 | CN(C(=O)N1CC[C@H](n2cnc3cc(-c4ccc(Cl)cc4)sc3c2=O)C1)[C@H]1CCN(CC2CCOC2)C1 (some centres not stated) | – |
| 4 | 15 | CN(C(=O)N1CC[C@H](n2cnc3cc(-c4ccc(Cl)cc4)sc3c2=O)C1)[C@H]1CCN(Cc2ccoc2)C1 | – |
| 7 | 11 | CN(C(=O)N1CC[C@H](n2cnc3cc(-c4ccc(Cl)cc4)sc3c2=O)C1)[C@H]1CCN(CCC2CCOCC2)C1 | – |
| 39 | – | CN1CC[C@H](N(C)C(=O)N2CC[C@H](n3cnc4cc(-c5ccc(OC(F)(F)F)cc5)sc4c3=O)C2)C1 | – |
| 17 | 44 | CN(C(=O)N1CC[C@H](n2cnc3cc(-c4ccc(Cl)cc4)sc3c2=O)C1)[C@H]1CCN(CC(=O)C(C)(C)C)C1 | – |
| 80 | – | CN(C(=O)N1CC[C@H](n2cnc3cc(-c4ccc(Cl)cc4)sc3c2=O)C1)[C@H]1CCN(CC(=O)c2ccc(OC(F)(F)F)cc2)C1 | – |
| 154 | – | CN(C(=O)N1CC[C@@H](n2cnc3cc(-c4ccc(Cl)cc4)sc3c2=O)C1)[C@H]1CCN(C2CCOCC2)C1 | – |
| 5 | 23 | CC(C)N1CC[C@H](N(C)C(=O)N2CC[C@H](n3cnc4cc(-c5ccc(Cl)cc5)sc4c3=O)C2)C1 | – |
| 17 | – | CN1CC[C@H](N(C)C(=O)N2CC[C@H](n3cnc4cc(-c5ccc(C(F)(F)F)cc5)sc4c3=O)C2)C1 | – |
